What all share (experiment): relative viability (nuclei count vs DMSO), 5 days (fraction); higher = more cells survive
Compound in experiment [1]: CC1=C(N=C(N=C1N)[C@H](CC(=O)N)NC[C@@H](C(=O)N)N)C(=O)N[C@@H]([C@H](C2=CN=CN2)OC3C(C(C(C(O3)CO)O)O)OC4C(C(C(C(O4)CO)O)OC(=O)N)O)C(=O)N[C@H](C)[C@H]([C@H](C)C(=O)N[C@@H]([C@@H](C)O)C(=O)NCCC5=NC(=CS5)C6=NC(=CS6)C(=O)NCCC[S+](C)C)O [Bleomycin] + CCNC(=O)c1noc(-c2cc(C(C)C)c(O)cc2O)c1-c1ccc(CN2CCOCC2)cc1 [Luminespib] (partner 0.01 µM)
To be noted: main component drawn. An outline of the steps: (§1)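 Medians of duplicate plates are given as relative viability. That measure is the nuclei count in treated wells divided by the count in vehicle wells. Counts were taken on 4× images of lung cancer cell lines in 1536-well plates, 5 days after pin-tool dosing the day after seeding with one drug alone or a fixed anchor-drug dose plus five library-drug doses (not always all listed) in √10 steps.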

Compound in experiment [2]: COc1cc([C@@H]2c3cc4c(cc3[C@@H](O[C@@H]3O[C@@H]5CO[C@@H](C)O[C@H]5[C@H](O)[C@H]3O)[C@H]3COC(=O)[C@H]23)OCO4)cc(OC)c1O [Etoposide] + CC(=O)Nc1cccc(-n2c(=O)n(C3CC3)c(=O)c3c(Nc4ccc(I)cc4F)n(C)c(=O)c(C)c32)c1 [Trametinib] (partner 0.02 µM)
An outline of the steps: as §1

Compound in experiment [3]: COc1cc([C@@H]2c3cc4c(cc3[C@@H](O[C@@H]3O[C@@H]5CO[C@@H](C)O[C@H]5[C@H](O)[C@H]3O)[C@H]3COC(=O)[C@H]23)OCO4)cc(OC)c1O [Etoposide] + C[C@]1(O)C[C@@H](c2nc(-c3ccc4ccc(-c5ccccc5)nc4c3)c3c(N)nccn32)C1 [Linsitinib] (partner 1 µM)
An outline of the steps: as §1

Compound in experiment [4]: COc1cc([C@@H]2c3cc4c(cc3[C@@H](O[C@@H]3O[C@@H]5CO[C@@H](C)O[C@H]5[C@H](O)[C@H]3O)[C@H]3COC(=O)[C@H]23)OCO4)cc(OC)c1O [Etoposide] + Nc1ncn([C@H]2C[C@H](O)[C@@H](CO)O2)c(=O)n1 [Decitabine] (partner 2 µM)
An outline of the steps:
as §1

As for NCI-H1734, the relative viability in experiment [1] (first compound 0.01 µM) was 0.167; in experiment [1] (first compound 0.03162 µM), 0.187; in experiment [1] (first compound 0.1 µM), 0.198; in experiment [1] (first compound 0.3162 µM), 0.13; in experiment [1] (first compound 1 µM), 0.147; in experiment [2] (first compound 0.01 µM), 0.655. Besides, the relative viability was 0.74 in experiment [2] (first compound 0.03162 µM); 0.499 in experiment [2] (first compound 0.1 µM); 0.461 in experiment [2] (first compound 0.3162 µM); 0.452 in experiment [2] (first compound 1 µM); 0.746 in experiment [3] (first compound 0.01 µM); 0.932 in experiment [3] (first compound 0.03162 µM). The relative viability in experiment [3] (first compound 0.1 µM) was found to be 0.725; in experiment [3] (first compound 0.3162 µM), 0.688; in experiment [3] (first compound 1 µM), 0.509; in experiment [4] (first compound 0.01 µM), 0.517; in experiment [4] (first compound 0.03162 µM) it was 0.513; in experiment [4] (first compound 0.1 µM), 0.454. Also, the relative viability in experiment [4] (first compound 0.3162 µM) stood at 0.379; in experiment [4] (first compound 1 µM), 0.314.
Consider NCI-H1755, for which the relative viability worked out at 0.582 in experiment [1] (first compound 0.01 µM); 0.695 in experiment [1] (first compound 0.03162 µM); 0.22 in experiment [1] (first compound 0.1 µM); 0.33 in experiment [1] (first compound 0.3162 µM); 0.244 in experiment [1] (first compound 1 µM); 0.751 in experiment [2] (first compound 0.01 µM). Besides, the relative viability is 0.787 in experiment [2] (first compound 0.03162 µM); 0.692 in experiment [2] (first compound 0.1 µM); 0.723 in experiment [2] (first compound 0.3162 µM); 0.546 in experiment [2] (first compound 1 µM); 0.985 in experiment [3] (first compound 0.01 µM); 1.03 in experiment [3] (first compound 0.03162 µM). Further, the relative viability worked out at 0.974 in experiment [3] (first compound 0.1 µM); 0.951 in experiment [3] (first compound 0.3162 µM); 0.858 in experiment [3] (first compound 1 µM); 0.795 in experiment [4] (first compound 0.01 µM); 0.731 in experiment [4] (first compound 0.03162 µM); 0.712 in experiment [4] (first compound 0.1 µM). Further, the relative viability came out at 0.622 in experiment [4] (first compound 0.3162 µM) and 0.553 in experiment [4] (first compound 1 µM).
NCI-H1792: the relative viability in experiment [1] (first compound 0.01 µM) is 0.393; in experiment [1] (first compound 0.03162 µM), 0.424; in experiment [1] (first compound 0.1 µM) it was 0.553; in experiment [1] (first compound 0.3162 µM), 0.239; in experiment [1] (first compound 1 µM), 0.251; in experiment [2] (first compound 0.01 µM) it was 0.47. For the same cell line, the relative viability in experiment [2] (first compound 0.03162 µM) turned out to be 0.5; in experiment [2] (first compound 0.3162 µM) it was 0.371; in experiment [2] (first compound 1 µM), 0.335; in experiment [3] (first compound 0.01 µM), 0.405; in experiment [3] (first compound 0.03162 µM), 0.331; in experiment [3] (first compound 0.1 µM) it was 0.261. Also, the relative viability in experiment [3] (first compound 0.3162 µM) worked out at 0.418; in experiment [3] (first compound 1 µM), 0.289; in experiment [4] (first compound 0.01 µM) it was 0.515; in experiment [4] (first compound 0.03162 µM), 0.741; in experiment [4] (first compound 0.3162 µM), 0.5; in experiment [4] (first compound 1 µM), 0.331.
NCI-H1793: the relative viability in experiment [1] (first compound 0.01 µM) amounted to 0.169; in experiment [1] (first compound 0.03162 µM), 0.157; in experiment [1] (first compound 0.1 µM), 0.286; in experiment [1] (first compound 0.3162 µM) it was 0.175; in experiment [1] (first compound 1 µM), 0.153; in experiment [2] (first compound 0.03162 µM), 0.484. The relative viability in experiment [2] (first compound 0.1 µM) came out at 0.357; in experiment [2] (first compound 0.3162 µM), 0.352; in experiment [2] (first compound 1 µM) it was 0.293; in experiment [3] (first compound 0.01 µM), 0.692; in experiment [3] (first compound 0.03162 µM) it was 0.989; in experiment [3] (first compound 0.3162 µM) it was 0.716. In addition, the relative viability worked out at 0.429 in experiment [3] (first compound 1 µM); 0.497 in experiment [4] (first compound 0.03162 µM); 0.454 in experiment [4] (first compound 0.1 µM); 0.345 in experiment [4] (first compound 0.3162 µM); 0.236 in experiment [4] (first compound 1 µM).
Turning to NCI-H1915, the relative viability turned out to be 0.533 in experiment [1] (first compound 0.01 µM); 0.568 in experiment [1] (first compound 0.03162 µM); 0.398 in experiment [1] (first compound 0.1 µM); 0.235 in experiment [1] (first compound 0.3162 µM); 0.145 in experiment [1] (first compound 1 µM); 0.275 in experiment [2] (first compound 0.01 µM). Further, the relative viability came to 0.343 in experiment [2] (first compound 0.03162 µM); 0.253 in experiment [2] (first compound 0.1 µM); 0.262 in experiment [2] (first compound 0.3162 µM); 0.282 in experiment [2] (first compound 1 µM); 1.1 in experiment [3] (first compound 0.01 µM); 1.16 in experiment [3] (first compound 0.03162 µM). The relative viability in experiment [3] (first compound 0.1 µM) came to 1.06; in experiment [3] (first compound 0.3162 µM), 0.994; in experiment [3] (first compound 1 µM) it was 0.851; in experiment [4] (first compound 0.01 µM) it was 0.267; in experiment [4] (first compound 0.03162 µM) it was 0.261; in experiment [4] (first compound 0.1 µM), 0.256. The relative viability in experiment [4] (first compound 0.3162 µM) was found to be 0.26; in experiment [4] (first compound 1 µM) it was 0.245.
Consider NCI-H1944, for which the relative viability turned out to be 0.363 in experiment [1] (first compound 0.01 µM); 0.318 in experiment [1] (first compound 0.03162 µM); 0.269 in experiment [1] (first compound 0.1 µM); 0.176 in experiment [1] (first compound 0.3162 µM); 0.148 in experiment [1] (first compound 1 µM); 0.435 in experiment [2] (first compound 0.01 µM). Further, the relative viability was 0.46 in experiment [2] (first compound 0.03162 µM); 0.297 in experiment [2] (first compound 0.1 µM); 0.255 in experiment [2] (first compound 0.3162 µM); 0.175 in experiment [2] (first compound 1 µM); 1.45 in experiment [3] (first compound 0.01 µM); 1.33 in experiment [3] (first compound 0.03162 µM). In addition, the relative viability is 0.844 in experiment [3] (first compound 0.1 µM); 0.733 in experiment [3] (first compound 0.3162 µM); 0.392 in experiment [3] (first compound 1 µM); 0.396 in experiment [4] (first compound 0.01 µM); 0.459 in experiment [4] (first compound 0.03162 µM); 0.384 in experiment [4] (first compound 0.1 µM). In addition, the relative viability in experiment [4] (first compound 0.3162 µM) came out at 0.36; in experiment [4] (first compound 1 µM) it was 0.296.
As to NCI-H1975, the relative viability in experiment [1] (first compound 0.01 µM) worked out at 0.29; in experiment [1] (first compound 0.03162 µM), 0.168; in experiment [1] (first compound 0.1 µM), 0.177; in experiment [1] (first compound 0.3162 µM), 0.164; in experiment [1] (first compound 1 µM), 0.178; in experiment [2] (first compound 0.01 µM), 0.303. Also, the relative viability in experiment [2] (first compound 0.03162 µM) was 0.425; in experiment [2] (first compound 0.1 µM) it was 0.284; in experiment [2] (first compound 0.3162 µM), 0.268; in experiment [2] (first compound 1 µM) it was 0.236; in experiment [3] (first compound 0.01 µM), 0.973; in experiment [3] (first compound 0.03162 µM), 1.07. For the same cell line, the relative viability in experiment [3] (first compound 0.1 µM) turned out to be 0.902; in experiment [3] (first compound 0.3162 µM), 0.67; in experiment [3] (first compound 1 µM), 0.345; in experiment [4] (first compound 0.01 µM), 0.371; in experiment [4] (first compound 0.03162 µM), 0.757; in experiment [4] (first compound 0.1 µM), 0.4. The relative viability in experiment [4] (first compound 0.3162 µM) is 0.249; in experiment [4] (first compound 1 µM), 0.212.
